≈ marks a conversion by molar mass, not a printed value. Numbered stars: 1 amine (or outer) side, 2 acyl side, 3 side chain; on linkers, the order of the positions; unused ones are H or OH. Bridge positions count the residues as written; N and C are the ends. Square brackets hold non-standard residues; d marks the D form. Peptide text beside a SMILES is read from it. * marks the point of attachment. X4 = CCCCCCCCN([C@H](C)C(=O)[*:2])[*:1]; X2 = CCCCC[C@@H](C)N(CC(=O)[*:2])[*:1]; X6 = CCCCC[C@H](C)N(CC(=O)[*:2])[*:1]; X7 = CCOCCOCCOCCN(CC(=O)[*:2])[*:1]; aIle = CC[C@@H](C)[C@H](N)C(=O)O; N(octyl)Gly = CCCCCCCCNCC(=O)O; aThr = C[C@H](O)[C@H](N)C(=O)O; NMeL = CN[C@@H](CC(C)C)C(=O)O; dOrn = NCCC[C@@H](N)C(=O)O; dDab = NCC[C@@H](N)C(=O)O; Heptanoyl = CCCCCCC(=O)*; Octanoyl = CCCCCCCC(=O)*; Orn = NCCC[C@H](N)C(=O)O; Dab = NCC[C@H](N)C(=O)O; Hexanoyl = CCCCCC(=O)*; Pentanoyl = CCCCC(=O)*; Propionyl = CCC(=O)*; Butyryl = CCCC(=O)*; βAla = NCCC(=O)O
How the values were obtained:
E. coli = assay type: cell-based
Text: Initially, a library of six lipid amide analogues was synthesized via cyclization between the side-chain epsilon -NH2 of an N-terminal L-lysine residue and the C-terminus of an L-serine residue.
Each analogue was acylated with a simple linear lipid, ranging from C3 to C8 in length (Figure S1). To further probe the potential of the amide isostere, five additional analogues were synthesized in which the D- or L-stereoisomer of cationic amino acids diaminobutyric acid (Dab), ornithine (Orn), or Lys were used as the N-terminal cyclization partner. Each analogue was acylated with an octanoyl tail and the subsequent effects of ring size and/or stereochemistry, as well as lipid length, determined by assessing antimicrobial activity against E. coli. Peptides were also screened against S. aureus.
Unfortunately, each analogue was unable to […]

PaLspA [1] = target: T1, PaLspA (Pseudomonas aeruginosa, UniProt Q9HVM5); experiment: Enzyme inhibition assay of rationally designed analogues with PaLspA; assay type: biochemical; details: peptide incubated with PaLspA
T1 construct: made in house
T1 sequence (Q9HVM5 1-169): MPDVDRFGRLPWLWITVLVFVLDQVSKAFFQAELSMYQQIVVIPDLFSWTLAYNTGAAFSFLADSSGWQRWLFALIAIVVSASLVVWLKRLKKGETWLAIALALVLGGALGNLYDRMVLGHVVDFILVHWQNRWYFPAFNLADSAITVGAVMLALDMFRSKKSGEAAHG
Protocol: Additionally, C3 – C5 (peptides S5 – S7) and C7-Gbm(NLys) (peptide S9) amide analogues were submitted for enzyme inhibition assays to determine if these cyclic amide isosteres could still inhibit the target enzyme, LspA. Each peptide was incubated with PaLspA and the observed reduction in enzyme activity reported. […]
found for peptides S5 and S9 (C3 and C7-Gbm(NLys). […]
Four linear globomycin analogues were synthesized to determine the necessity of the cyclic core.
The pentapeptide core of NMeLeu-Ile-Ser-Thr-Gly-OH was synthesized as both the natural allo-version and the cheaper non-allo version in which native residues allo-L-isoleucine and allo-L-threonine were replaced by their cheaper non-allo derivatives. Each linear pentapeptide was synthesized in both its acylated, octyl-derivative and non-acylated form and submitted for analysis of its PaLspA inhibitory activity. No PaLspA inhibition was observed, confirming the importance of globomycin’s cyclic core for antimicrobial activity.

PaLspA [2] = target: T1, PaLspA; experiment: biochemical
Protocol: These analogues were tested for activity against PaLspA using an in vitro fluorescence resonance energy transfer (FRET) activity assay.[21] LspA inhibition was detected by a change in fluorescence upon cleavage of a FRET peptide substrate containing an N-terminal quencher moiety and a C-terminal fluorophore.
(A) Structures of G2a and G2d. (B) Results of the FRET dose–response assays. PaLspA concentration was 40 nM, FRET substrate concentration was 50 μM, and the concentration of inhibitors globomycin, G2a, and G2d ranged from 0–3,000 nM. (C) SDS-PAGE gels and quantitation of the PaLspA gel-shift dose–response assays. ppICP concentration was 12 μM, DOPG concentration was 600 μM, and Lgt concentration was 1.2 μM. The Lgt-catalyzed reaction was allowed to proceed for 60 min at 37 °C, after which inhibitors (0–1000 nM) were added. The PaLspA reaction was initiated by the addition of 100 nM enzyme. The LspA reaction was allowed to proceed for 30 min at 37 °C before being quenched with SDS-PAGE loading buffer (62.5 mM Tris/HCl pH 6.8, 2.5% (w/v) SDS, 0.002% (w/v) bromophenol blue, 0.5 M β-mercaptoethanol, 10% (v/v) glycerol). Quantitation of the gel-shift assays was performed using Image Lab, and data were plotted using GraphPad Prism.
Materials: All reagents were obtained from commercial sources and used without additional purification. All aqueous solutions were prepared using ultrapure laboratory grade water (deionized, filtered, and sterilized) obtained from an in-house ELGA water purification system. […]
Expression and purification of PaLspA, Lgt, EcLspA and ppICP: PaLspA, Lgt and pre-proICP (ppICP) were expressed and purified using previously published protocols (Vogely et al, 2016).[1] EcLspA was expressed and purified as described for PaLspA, with the following modification. The lysis buffer was 50 mM Hepes pH 7.5, 150 mM NaCl, 1 mM TCEP, 10 %(v/v) glycerol. Isolated membranes, containing EcLspA, were solubilized with 1 %(v/v) FC12 for 2 h at […]

P. aeruginosa 950 = experiment: microbe, parasite or virus in culture; assay type: cell-based, Pseudomonas aeruginosa; details: 950
Protocol: (§1) MIC values were determined in cation-adjusted Mueller-Hinton broth using the broth microdilution method according to CLSI guidelines. Plates were incubated for 16 to 24 h at 37 °C.
(§2) Six biological replicates were performed across three different 2-fold dilution series, starting at concentration of 100 µg/ml, 80 µg/ml or 64 µg/ml. The lowest concentration of antimicrobial inhibiting growth was taken as the MIC. This was established by visual inspection of the medium after the incubation period with a lack of turbidity of the growth medium indicating no growth.[3] […]

A. baumannii AB17978 = experiment: microbe, parasite or virus in culture; assay type: cell-based, Acinetobacter baumannii; details: AB17978
Protocol: as §1, §2

A. baumannii AB5075 = experiment: microbe, parasite or virus in culture; assay type: cell-based, Acinetobacter baumannii; details: AB5075
Protocol: as §1, §2

E. coli ATCC25922 = experiment: microbe, parasite or virus in culture; assay type: cell-based, Escherichia coli; details: ATCC25922
Protocol: as §1, §2

SMILES	MIC (E. coli) [µg/mL]	further results
CCCC(=O)N[C@H]1CCCCNC(=O)[C@H](CO)NC(=O)[C@H](CO)NC(=O)[C@H]([C@H](C)CC)NC(=O)[C@H](CC(C)C)N(C)C1=O [S6, C4-Globomycin(N-Lys)] (Butyryl-K[NMeL][aIle]SS; lactam 1-C)	> 200	reduction in PaLspA enzyme activity (in words) (PaLspA [1]): no reduction in activity
CCCCCCCC(=O)N[C@H]1CCCCNC(=O)[C@H](CO)NC(=O)[C@H](CO)NC(=O)[C@H]([C@H](C)CC)NC(=O)[C@H](CC(C)C)N(C)C1=O [S10, C8-Globomycin(N-Lys)] (Octanoyl-K[NMeL][aIle]SS; lactam 1-C)	> 200	–
CCCCCCCC(=O)N[C@H]1CCCNC(=O)[C@H](CO)NC(=O)[C@H](CO)NC(=O)[C@H]([C@H](C)CC)NC(=O)[C@H](CC(C)C)N(C)C1=O [S11, C8-Globomycin(N-Orn)] (Octanoyl-[Orn][NMeL][aIle]SS; lactam 1-C)	> 200	–
CCCCCCCC(=O)N(C)[C@@H](CC(C)C)C(=O)N[C@H](C(=O)N[C@@H](CO)C(=O)N[C@H](C(=O)NCC(=O)O)[C@@H](C)O)[C@@H](C)CC [S4, Non-alloOctanoyl-Globomycin] (Octanoyl-[NMeL]ISTG-OH)	> 200	–
CCCCCCCC(=O)N[C@@H]1CCCNC(=O)[C@H](CO)NC(=O)[C@H](CO)NC(=O)[C@H]([C@H](C)CC)NC(=O)[C@H](CC(C)C)N(C)C1=O [S15, C8-Globomycin(N-D-Orn)] (Octanoyl-[dOrn][NMeL][aIle]SS; lactam 1-C)	> 200	–
CCCCCCCC(=O)N[C@H]1CCNC(=O)[C@H](CO)NC(=O)[C@H](CO)NC(=O)[C@H]([C@H](C)CC)NC(=O)[C@H](CC(C)C)N(C)C1=O [S12, C8-Globomycin(N-Dab)] (Octanoyl-[Dab][NMeL][aIle]SS; lactam 1-C)	> 200	–
CCCCCCCC(=O)N[C@H]1CC=CCNC(=O)[C@H](CO)NC(=O)[C@H](CO)NC(=O)[C@H]([C@H](C)CC)NC(=O)[C@H](CC(C)C)N(C)C1=O [S13, C8-Globomycin(RCM)]	> 200	antimicrobial activity (in words) (E. coli; against Gram-negative bacteria): void of antimicrobial activity
CCCCCCCCN1C(=O)CCNC(=O)[C@H]([C@H](C)O)NC(=O)[C@H](CO)NC(=O)[C@H]([C@H](C)CC)NC(=O)[C@H](CC(C)C)N(C)C(=O)[C@H]1C [G2b] (cyclo([NMeL][aIle]S[aThr][βAla][X4]))	–	IC50 (PaLspA [2]): 430 ± 50 nM
CCCCCCCC(=O)N[C@@H]1CCCCNC(=O)[C@H](CO)NC(=O)[C@H](CO)NC(=O)[C@H]([C@H](C)CC)NC(=O)[C@H](CC(C)C)N(C)C1=O [S14, C8-Globomycin(N-D-Lys)] (Octanoyl-[dK][NMeL][aIle]SS; lactam 1-C)	> 200	–
CCCCC[C@@H](C)N1CC(=O)N(C)[C@@H](CC(C)C)C(=O)N[C@@H]([C@H](C)CC)C(=O)N[C@@H](CO)C(=O)N[C@@H]([C@H](C)O)C(=O)NCCC1=O [G1b] (cyclo([NMeL][aIle]S[aThr][βAla][X2]))	–	MIC (P. aeruginosa 950): 32 µg/mL (≈ 48.9 µM); MIC (A. baumannii AB17978): 16 µg/mL (≈ 24.4 µM); MIC (A. baumannii AB5075): 25 µg/mL (≈ 38.2 µM); IC50 (PaLspA [2]): 3680 ± 420 nM; MIC (E. coli ATCC25922): 32 µg/mL (≈ 48.9 µM)
CCCCCC(=O)N[C@H]1CCCCNC(=O)[C@H](CO)NC(=O)[C@H](CO)NC(=O)[C@H]([C@H](C)CC)NC(=O)[C@H](CC(C)C)N(C)C1=O [S8, C6-Globomycin(N-Lys)] (Hexanoyl-K[NMeL][aIle]SS; lactam 1-C)	> 200	–
CC[C@@H](C)[C@H](NC(=O)[C@H](CC(C)C)NC)C(=O)N[C@@H](CO)C(=O)N[C@H](C(=O)NCC(=O)O)[C@H](C)O [S1, HN-Globomycin] (H-[NMeL][aIle]S[aThr]G-OH)	> 200	–
CC[C@H](C)[C@H](NC(=O)[C@H](CC(C)C)NC)C(=O)N[C@@H](CO)C(=O)N[C@H](C(=O)NCC(=O)O)[C@@H](C)O [S2, Non-alloHN-Globomycin] (H-[NMeL]ISTG-OH)	> 200	–
CCCCCCCC(=O)N(C)[C@@H](CC(C)C)C(=O)N[C@H](C(=O)N[C@@H](CO)C(=O)N[C@H](C(=O)NCC(=O)O)[C@H](C)O)[C@H](C)CC [S3, Octanoyl-Globomycin] (Octanoyl-[NMeL][aIle]S[aThr]G-OH)	> 200	–
CCCCCCCCN1CC(=O)N(C)[C@@H](CC(C)C)C(=O)N[C@@H]([C@H](C)CC)C(=O)N[C@@H](CO)C(=O)N[C@@H]([C@H](C)O)C(=O)NCCC1=O [G2c] (cyclo([NMeL][aIle]S[aThr][βAla][N(octyl)Gly]))	–	IC50 (PaLspA [2]): 920 ± 70 nM
CCCCCCC(=O)N[C@H]1CCCCNC(=O)[C@H](CO)NC(=O)[C@H](CO)NC(=O)[C@H]([C@H](C)CC)NC(=O)[C@H](CC(C)C)N(C)C1=O [S9, C7-Globomycin(N-Lys)] (Heptanoyl-K[NMeL][aIle]SS; lactam 1-C)	100 (≈ 153 µM)	reduction in PaLspA enzyme activity (in words) (PaLspA [1]): moderate decrease in enzyme activity
CCOCCOCCOCCN1CC(=O)N(C)[C@@H](CC(C)C)C(=O)N[C@@H]([C@H](C)CC)C(=O)N[C@@H](CO)C(=O)N[C@@H]([C@H](C)O)C(=O)NCCC1=O [G2e] (cyclo([NMeL][aIle]S[aThr][βAla][X7]))	–	IC50 (PaLspA [2]): 6160 ± 840 nM
CCCCCCCC(=O)N[C@@H]1CCNC(=O)[C@H](CO)NC(=O)[C@H](CO)NC(=O)[C@H]([C@H](C)CC)NC(=O)[C@H](CC(C)C)N(C)C1=O [S16, C8-Globomycin(N-D-Dab)] (Octanoyl-[dDab][NMeL][aIle]SS; lactam 1-C)	> 200	–
CCCCC[C@H](C)N1CC(=O)N(C)[C@@H](CC(C)C)C(=O)N[C@@H]([C@H](C)CC)C(=O)N[C@@H](CO)C(=O)N[C@@H]([C@H](C)O)C(=O)NCCC1=O [G1a] (cyclo([NMeL][aIle]S[aThr][βAla][X6]))	–	IC50 (PaLspA [2]): 2940 ± 850 nM
CCC(=O)N[C@H]1CCCCNC(=O)[C@H](CO)NC(=O)[C@H](CO)NC(=O)[C@H]([C@H](C)CC)NC(=O)[C@H](CC(C)C)N(C)C1=O [S5, C3-Globomycin(N-Lys)] (Propionyl-K[NMeL][aIle]SS; lactam 1-C)	> 200	reduction in PaLspA enzyme activity (in words) (PaLspA [1]): moderate decrease in enzyme activity
CCCCC(=O)N[C@H]1CCCCNC(=O)[C@H](CO)NC(=O)[C@H](CO)NC(=O)[C@H]([C@H](C)CC)NC(=O)[C@H](CC(C)C)N(C)C1=O [S7, C5-Globomycin(N-Lys)] (Pentanoyl-K[NMeL][aIle]SS; lactam 1-C)	> 200	reduction in PaLspA enzyme activity (in words) (PaLspA [1]): no reduction in activity
